According to patent publication US8211900B2, “DHFR enzyme inhibitors” (Chroma Therapeutics Ltd., priority 2006, dated 2012):

Experiments:
recombinant human DHFR = biological target: T1, recombinant human DHFR (Homo sapiens, UniProt P00374); test: DHFR enzyme inhibition assay (Sigma kit CS0340); format: biochemical; conditions: NADPH 60 μM, dihydrofolic acid 50 μM
T1 construct: purchased Sigma CS0340
T1 sequence (P00374 1-187): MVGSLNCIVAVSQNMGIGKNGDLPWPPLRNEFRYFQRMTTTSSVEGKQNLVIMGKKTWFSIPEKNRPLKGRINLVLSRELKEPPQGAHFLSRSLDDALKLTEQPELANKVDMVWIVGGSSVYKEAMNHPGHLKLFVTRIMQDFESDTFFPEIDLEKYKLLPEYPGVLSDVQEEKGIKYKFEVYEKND
Protocol: The ability of compounds to inhibit DHFR activity was measured in an assay based on the ability of DHFR to catalyse the reversible NADPH-dependent reduction of dihydrofolic acid to tetrahydrofolic acid using a Sigma kit (Catalogue number CS0340). This uses proprietary assay buffer and recombinant human DHFR at 7.5×10^−4 Unit per reaction, NADPH at 60 μM and dihydrofolic acid at 50 μM. The reaction was followed by monitoring the decrease in absorbance at 340 nm, for a 2 minute period, at room temperature, and the enzyme activity was calculated as the rate of decrease in absorbance. Enzyme activity, in the presence of inhibitor, was expressed as a percentage of inhibitor-free activity and the inhibitor IC50 was determined from a sigmoidal dose response curve using XLfit software (% activity against log concentration of compound). Each sample was run in triplicate and each dose response curve was composed of 10 dilutions of the inhibitor.

HUT78 = test: Cell inhibition assay (WST-1 cell viability), HUT78; format: cell-based; conditions: Homo sapiens, HUT78 cells, 72-96 h, read-out: Inhibition cell proliferation HUT
Protocol: (§1) Cancer cell lines (U937, HCT-116, THP-1 and HUT78) growing in log phase were harvested and seeded at 1000-2000 cells/well (100 μl final volume) into 96-well tissue culture plates. Following 24 h of growth cells were treated with compound.
(§2) Plates were then re-incubated for a further 72-96 h before a WST-1 cell viability assay was conducted according to the suppliers (Roche Applied Science) instructions. Data were expressed as a percentage inhibition of the control, measured in the absence of inhibitor, as follows:— % inhibition=100−((S^i/S^o)×100) where S^i is the signal in the presence of inhibitor and S^o is the signal in the presence of DMSO. Dose response curves were generated from 8 concentrations (top final concentration 10 μM, with 3-fold dilutions), using 6 replicates. IC50 values were determined by non-linear regression analysis, after fitting the results to the equation for sigmoidal dose response with variable slope (% activity against log concentration of compound), using Graphpad Prism software. IC50 values were allocated to one of the three ranges as follows: • Range A IC %)<100 nM • Range B: 100 nM<IC50<1000 nM • Range C: IC50>1000 nM

U937 = test: Cell inhibition assay (WST-1 cell viability), U937; format: cell-based; conditions: Homo sapiens, U-937, U937 cells, 72-96 h, read-out: Inhibition cell proliferation U937
Protocol: as §1, §2

HCT-116 = test: Cell inhibition assay (WST-1 cell viability), HCT-116; format: cell-based; conditions: Homo sapiens, HCT-116 cells, 72-96 h, read-out: Inhibition cell proliferation HCT-116
Protocol: as §1, §2

THP-1 = test: Cell inhibition assay (WST-1 cell viability), THP-1; format: cell-based; conditions: Homo sapiens, THP-1 cells, 72-96 h, read-out: Inhibition cell proliferation THP-1
Protocol: as §1, §2

IC50 (recombinant human DHFR) | IC50 (U937) | IC50 (HCT-116) | IC50 (THP-1) | SMILES | IC50 (HUT78)
< 100 nM | – | – | – | COc1cc(NCc2ccc3nc(N)nc(N)c3c2C)cc(OC)c1OCC(=O)N[C@@H](CC(C)C)C(=O)O [Example 7, N-[(4-{[(2,4-diamino-5-methylquinazolin-6-yl)methyl]amino}-2,6-dimethoxyphenoxy)acetyl]-L-leucine] | –
100 to 1000 nM | < 100 nM | 100 to 1000 nM | < 100 nM | COc1cc(NCc2ccc3nc(N)nc(N)c3c2C)cc(OC)c1OCCN[C@@H](CC(C)C)C(=O)OC1CCCC1 [Example 8, Cyclopentyl N-[2-(4-{[(2,4-diamino-5-methylquinazolin-6-yl)methyl]amino}-2,6-dimethoxyphenoxy)ethyl]-L-leucinate] | < 100 nM
< 100 nM | – | – | – | COc1cc(NCc2ccc3nc(N)nc(N)c3c2C)cc(OC)c1OCCN[C@@H](CC(C)C)C(=O)O [Example 9, N-[2-(4-{[(2,4-diamino-5-methylquinazolin-6-yl)methyl]amino}-2,6-dimethoxyphenoxy)ethyl]-L-leucine] | –
< 100 nM | – | – | – | Cc1c(CNc2ccc(CN[C@@H](CC(C)C)C(=O)O)cc2)cnc2nc(N)nc(N)c12 [Example 4, (S)-2-{4-[(2,4-Diamino-5-methyl-pyrido[2,3-d]pyrimidin-6-ylmethyl)-amino]-benzylamino}-4-methyl-pentanoic Acid] | –
> 1000 nM | < 100 nM | 100 to 1000 nM | < 100 nM | COc1cc(NCc2ccc3nc(N)nc(N)c3c2C)cc(OC)c1OCC(=O)N[C@@H](CC(C)C)C(=O)OC(C)(C)C [Example 6, tert-Butyl N-[(4-{[(2,4-diamino-5-methylquinazolin-6-yl)methyl]amino}-2,6-dimethoxyphenoxy)acetyl]-L-leucinate] | 100 to 1000 nM
> 1000 nM | < 100 nM | < 100 nM | < 100 nM | Cc1c(CNc2ccc(C(=O)N[C@@H](CC(C)C)C(=O)OC3CCCC3)cc2)cnc2nc(N)nc(N)c12 [Example 1, (S)-2-{4-[(2,4-Diamino-5-methyl-pyrido[2,3-d]pyrimidin-6-ylmethyl)-amino]-benzoylamino}-4-methyl-pentanoic Acid Cyclopentyl Ester] | < 100 nM
> 1000 nM | < 100 nM | > 1000 nM | 100 to 1000 nM | Cc1c(CNc2ccc(CN[C@@H](CC(C)C)C(=O)OC3CCCC3)cc2)cnc2nc(N)nc(N)c12 [Example 3, (S)-2-{4-[(2,4-Diamino-5-methyl-pyrido[2,3-d]pyrimidin-6-ylmethyl)-amino]-benzylamino}-4-methyl-pentanoic Acid Cyclopentyl Ester] | 100 to 1000 nM
100 to 1000 nM | 100 to 1000 nM | 100 to 1000 nM | 100 to 1000 nM | COc1cc(NCc2ccc3nc(N)nc(N)c3c2C)cc(OC)c1OCCN[C@@H](CC(C)C)C(=O)OC(C)(C)C [Example 10, tert-Butyl N-[2-(4-{[(2,4-diamino-5-methylquinazolin-6-yl)methyl]amino}-2,6-dimethoxyphenoxy)ethyl]-L-leucinate] | 100 to 1000 nM
> 1000 nM | < 100 nM | 100 to 1000 nM | < 100 nM | COc1cc(NCc2ccc3nc(N)nc(N)c3c2C)cc(OC)c1OCC(=O)N[C@@H](CC(C)C)C(=O)OC1CCCC1 [Example 5, Cyclopentyl N-[(4-{[(2,4-diamino-5-methylquinazolin-6-yl)methyl]amino}-2,6-dimethoxyphenoxy)acetyl]-L-leucinate] | < 100 nM
< 100 nM | – | – | – | Cc1c(CNc2ccc(C(=O)N[C@@H](CC(C)C)C(=O)O)cc2)cnc2nc(N)nc(N)c12 [Example 2, (S)-2-(4-((2,4-diamino-5-methylpyrido[2,3-a]pyrimidin-6-yl)methylamino)benzamido)-4-methylpentanoic Acid] | –
